Patent US20250057832A1, “USE OF A CLASS OF 1,4-DIHYDRO-NAPHTHYRIDINE DERIVATIVES IN TREATMENT OF TUMORS” (NEURODAWN PHARMACEUTICAL CO., LTD., priority 2021, published 2025)
“Also recorded” adds a separate entry of the source.

How the values were obtained:
[1] = tested on: U87MG-Luc glioblastoma cell in situ transplantation tumor; test: S2 in U87MG-Luc glioblastoma in situ transplantation tumor model in nude mice (Example 4); format: in vivo, BALB/c nude mice; conditions: for Overall survival period: vehicle 31; for Median survival period: vehicle 31.5
Description: Before the transplantation, the U87MG-Luc cells were digested with 0.05%-trypsin-EDTA, resuspended with pre-cooled PBS to 4×10^7 cells/mL, and transferred to ice for later use. The nude mice were anesthetized with isoflurane gas, and then fixed on a stereotaxic machine in a prone position. The scalp of the nude mouse was disinfected with iodophor, and incised sagittally with a scalpel. The incision was cleaned with iodophor. The skull was exposed, and drilled with a skull drill extending 1.0 mm in front of the bregma and deviating the right side 2.0 mm. 5 μL of cell suspension (2×10^5 cells) was manually injected with a 10 μL flat-head microsyringe, with inserting the needle to a depth of 3.5 mm, withdrawing the needle 0.5 mm, and injecting for about 10 minutes. After stopping the injection for 5 minutes, the needle was slowly removed, and the incision was sterilized and sutured. Finally 50,000 units of penicillin was injected intramuscularly to prevent infection.
On days 4, 12, 18, and 25 after the transplantation, 200 μL of 15 mg/mL D-luciferin potassium salt solution, which was filtered and sterilized through a 0.22 μm filter, was injected intraperitoneally. After 10 minutes, IVI chemiluminescence detection (bright field+bioluminescence imaging) was performed using the mouse in vivo imaging system (PE company IVIS Lumina XR). Luorescence intensity was analyzed using Living Image software to obtain fluorescence intensity [p/s], which reflected the size of tumor tissue in the brain of experimental animals.
The survival conditions of experimental animals were monitored, and the animals' death dates were recorded timely.
Quantitative data are expressed as mean±standard error. Each pharmacodynamic index was plotted using GraphPad Prism (8.0.1) software, differences between groups were tested by one-way ANOVA or two-way repeat ANOVA, followed by Fisher's LSD test, and survival analysis was performed by Kaplan-Meier. P<0.05 was defined as a significant difference.

[2] = tested on: T98G subcutaneous transplantation tumor; test: Human brain glioma T98G subcutaneous model in NOD SCID mice (Example 6); format: in vivo, NOD SCID mouse; conditions: S2 3 mg/kg IV
Description: Human brain glioma T98G cells were cultured in vitro. The cells were cultured in EMEM medium added with 10% fetal calf serum, 100 U/mL penicillin and 100 µg/mL streptomycin, in a 37° C. 5% CO2 incubator. After the number of cells reached the required number, the cells were collected. 0.2 mL (10×10^6) of T98G tumor cells (PBS:Matrigel=1:1) were subcutaneously inoculated into the right back of each mouse. The mice were grouped and administered when the average tumor volume reached approximately 147 mm^3. […]
Tumor diameters were measured with vernier calipers twice a week, and tumors were weighed and photographed after the experiment.
1.5 Data Statistics The tumor volume was calculated as follows: V=0.5a×b^2, where a and b represent the long and short diameters of the tumor respectively.
The tumor inhibitory effect was evaluated by TGI (%) or relative tumor proliferation rate T/C (%).
The tumor inhibitory effect was calculated as TGI (%): TGI %=[1-(average tumor volume at the end of administration in a certain treatment group−average tumor volume at the beginning of administration in the treatment group)/(average tumor volume at the end of administration in the vehicle control group−average tumor volume in the vehicle control group at the beginning of treatment)]×100. […]

various tumor cells = test: Vacuolation by S2, summary over tumor cells (FIG. 2); format: cell-based
Description: U87MG, T98G, U251, SK-N-SH, A-172 and HepG2 cells were adherently cultured in MEM+10% FBS+1% P/S medium and passaged at 1:3; CT26.WT cells were adherently cultured in RPMI-1640+10% FBS+1% P/S medium and passaged at 1:3; CHO-K1 was cultured adherently in Ham's F-12K+10% FBS+[…] medium and passaged at 1:3.
The cells used above were resuscitated and passaged twice stably. When the cell density reached above 85%, the cells were digested with 0.05% trypsin-EDTA for 3 minutes, resuspended with the culture medium, and plated into a 6-well plate at a certain density, with each well system being 2 mL. The cells were cultured for 24 hours, added with 2 μL of the above-prepared S2 solution (final DMSO concentration 0.1%) to each well according to the grouping, such that the S2 concentration in the cell culture system reached 30 μM.
After 6 hours of drug treatment, the plate was observed under a microscope with a 20× objective lens, and five fields of view were randomly selected for each well to take photos and record. […]

SMILES: CCOC(=O)C1=C(C)Nc2nc3c(c(N)c2C1c1ccccc1Cl)CC(C)(C)CC3 (stereo not drawn) [Compound S2]
- Overall survival period ([1]; S2 0.25 mg/kg): 32 days
- Median survival period ([1]; S2 0.25 mg/kg): 32.5 days
- Survival rate vs vehicle (Log-rank, FIG. 8) ([1]; S2 0.5 mg/kg IV): significantly increased the survival rate
- Tumor growth after two weeks of administration vs vehicle (FIG. 7) ([1]; S2 0.5 mg/kg IV): significant inhibitory effect on tumor growth
- Growth of U87MG in situ tumors in the brain vs vehicle (growth curve, FIG. 6) ([1]; S2 0.5 mg/kg IV once a day for 15 days): significantly inhibit the growth
- Overall survival period ([1]; S2 0.5 mg/kg): 33 days
- Median survival period ([1]; S2 0.5 mg/kg): 33.5 days
- Survival rate vs vehicle (Log-rank, FIG. 8) ([1]; S2 1 mg/kg IV): significantly increased the survival rate
- Tumor growth after two weeks of administration vs vehicle (FIG. 7) ([1]; S2 1 mg/kg IV): significant inhibitory effect on tumor growth
- Growth of U87MG in situ tumors in the brain vs vehicle (growth curve, FIG. 6) ([1]; S2 1 mg/kg IV once a day for 15 days): significantly inhibit the growth
- Rank of inhibitory effect on tumor among S2 dose groups ([1]; S2 1 mg/kg IV, after two weeks): strongest inhibitory effect on tumor
- Overall survival period ([1]; S2 1 mg/kg): 36 days
- Median survival period ([1]; S2 1 mg/kg): 35 days
- Growth of U87MG glioma in the brain of nude mice (FIG. 7 legend) ([1]; administration of S2 for 2 weeks, dose not given in legend): inhibited the growth of U87MG glioma
- Survival period of nude mice with orthotopically transplanted brain glioma (FIG. 8 legend) ([1]; dose not given in legend): prolonged the survival period
- Tumor volume growth vs vehicle (FIG. 13A-C) [2]: significantly inhibited tumor volume growth; also recorded: inhibited the growth of T98 glioma
- Tumor weight at end of experiment vs control (FIG. 13D) [2]: significantly lower than that in the control group; also recorded: reduced the volume and weight of solid tumors
- Induction of vacuolation (FIG. 2 legend) (various tumor cells): induced vacuolation
